# In patent publication US9676712B2, “Lactam compounds as EP4 receptor-selective agonists for use in the treatment of EP4-mediated diseases and conditions” (Cayman Chemical Company, Inc., priority 2013, dated 2017):
# Assays:
# EP4 receptor [1] = molecular target: T1, EP4 receptor (Rattus norvegicus (Rat), UniProt P43114); assay: STEP plate cell functional assay, cAMP level (ELISA), EP4; type: cell-based; conditions: 30 minutes, 500 μM IBMX
# Source text: (§1) Functional Cellular Assays (STEP Plate Format)
# Procedure of cAMP Assay for EP2/EP4 Agonist
# (§2) 3. […] In addition each concentration had triplicates.
# 6. Aspirate the supernatant.
# EP4 receptor [2] = molecular target: T1, EP4 receptor; assay: STEP plate cell functional assay, SEAP activity, EP4; type: cell-based; conditions: SEAP reporter, 6-8 hours stimulation
# Source text: as §1
# (§3) Procedure of SEAP Activity Assay for EP2/EP4 Agonist
# as §2
# (§4) 4. […] Cover the plate with the lid.
# EP2 receptor = EP2 receptor (Rattus norvegicus (Rat), UniProt Q62928); assay: STEP plate cell functional assay, SEAP activity, EP2; type: cell-based; conditions: SEAP reporter, 6-8 hours stimulation
# Source text: as §1, §3, §2, §4
# [3] = molecular target: Human Prostanoid EP4 Receptor (Homo sapiens (Human), UniProt P35408); assay: Radioligand binding assay, agonist site of the human prostanoid EP4 receptor in transfected HEK-293 cells ([3H]PGE2)
# Description: Radioligand Binding Assay for the Evaluation of the Affinity of Compounds for the Agonist Site of the Human Prostanoid EP4 Receptor in Transfected HEK-293 Cells
# Following incubation, the samples are filtered rapidly under vacuum through glass fiber filters (GF/B, Packard) presoaked with 0.3% PEI and rinsed several times with ice-cold 50 mM Tris-HCl using a 96-sample cell harvester (Unifilter, Packard). The filters are dried then counted for radioactivity in a scintillation counter (Topcount, Packard) using a scintillation cocktail (Microscint 0, Packard).
# Chain of EP2 receptor (Q62928 whole entry): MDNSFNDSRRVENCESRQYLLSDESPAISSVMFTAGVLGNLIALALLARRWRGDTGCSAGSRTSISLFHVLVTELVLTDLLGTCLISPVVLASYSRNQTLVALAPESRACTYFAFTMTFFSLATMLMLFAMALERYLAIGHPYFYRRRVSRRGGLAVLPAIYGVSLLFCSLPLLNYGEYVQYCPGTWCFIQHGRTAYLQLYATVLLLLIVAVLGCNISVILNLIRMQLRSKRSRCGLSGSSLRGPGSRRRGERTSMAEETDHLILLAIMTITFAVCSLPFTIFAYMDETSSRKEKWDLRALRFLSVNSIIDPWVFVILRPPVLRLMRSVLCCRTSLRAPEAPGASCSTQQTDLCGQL
# T1 sequence (P43114 whole entry): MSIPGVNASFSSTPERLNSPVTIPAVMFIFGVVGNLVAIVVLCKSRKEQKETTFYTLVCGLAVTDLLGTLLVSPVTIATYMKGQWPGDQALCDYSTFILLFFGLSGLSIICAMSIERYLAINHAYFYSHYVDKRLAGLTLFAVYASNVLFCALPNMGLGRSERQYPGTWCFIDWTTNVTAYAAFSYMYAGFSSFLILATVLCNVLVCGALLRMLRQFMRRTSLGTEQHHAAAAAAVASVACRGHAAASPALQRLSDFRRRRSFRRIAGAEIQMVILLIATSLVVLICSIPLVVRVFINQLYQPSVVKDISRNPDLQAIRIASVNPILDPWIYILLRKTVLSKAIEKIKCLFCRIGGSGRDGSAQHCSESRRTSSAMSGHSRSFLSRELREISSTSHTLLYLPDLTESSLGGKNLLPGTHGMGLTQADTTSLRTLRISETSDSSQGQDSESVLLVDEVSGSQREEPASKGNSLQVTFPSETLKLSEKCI
# Chain of Human Prostanoid EP4 Receptor (P35408 whole entry): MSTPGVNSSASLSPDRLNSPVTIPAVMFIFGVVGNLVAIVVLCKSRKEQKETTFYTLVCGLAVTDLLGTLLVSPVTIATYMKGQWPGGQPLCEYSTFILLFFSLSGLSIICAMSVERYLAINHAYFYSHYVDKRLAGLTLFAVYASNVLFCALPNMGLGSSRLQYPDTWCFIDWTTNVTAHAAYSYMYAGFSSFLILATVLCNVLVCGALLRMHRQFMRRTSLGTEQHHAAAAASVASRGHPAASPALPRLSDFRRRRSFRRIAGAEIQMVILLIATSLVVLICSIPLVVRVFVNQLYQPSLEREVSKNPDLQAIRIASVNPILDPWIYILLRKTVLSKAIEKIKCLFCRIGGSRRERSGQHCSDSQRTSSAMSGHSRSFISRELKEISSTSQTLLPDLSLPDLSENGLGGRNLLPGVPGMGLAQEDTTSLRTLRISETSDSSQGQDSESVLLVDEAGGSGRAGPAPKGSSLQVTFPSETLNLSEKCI
EC50 (EP4 receptor [1]),EC50 (EP4 receptor [2]),EC50 (EP2 receptor),IC50 ([3]; read-out: hEP4 receptor binding IC50),Ki ([3]; read-out: hEP4 receptor binding Ki),SMILES
0.007 nM,0.001 ± 0.001 nM,> 1000 nM,,,"CC(CCCc1ccccc1)[C@H](O)/C=C/[C@H]1CCC(=O)N1CCCCCCC(=O)O (mixture of isomers) [Example 2C, 7-((2R)-2-((3S,E)-3-hydroxy-4-methyl-7-phenylhept-1-en-1-yl)-5-oxopyrrolidin-1-yl)heptanoic acid]"
,,> 10000 nM,,,"CC(CCCc1ccccc1)[C@@H](O)/C=C/[C@H]1CCC(=O)N1CCCc1ccc(C(=O)O)s1 (mixture of isomers) [Example 4D, 5-(3-((2R)-2-((3R,E)-3-hydroxy-4-methyl-7-phenylhept-1-en-1-yl)-5-oxopyrrolidin-1-yl)propyl)thiophene-2-carboxylic acid]"
1.37 nM,0.014 ± 0.02 nM,> 1000 nM,10 nM,3.8 nM,"O=C(O)CCCCCCN1C(=O)CC[C@@H]1/C=C/[C@@H](O)CCCCc1ccccc1 [Example 1C, 7-((R)-2-((S,E)-3-hydroxy-7-phenylhept-1-en-1-yl)-5-oxopyrrolidin-1-yl)heptanoic acid]"

# The next lines start with the molecule.
SMILES,EC50 (EP4 receptor [1]),EC50 (EP4 receptor [2]),EC50 (EP2 receptor),IC50 ([3]; read-out: hEP4 receptor binding IC50),Ki ([3]; read-out: hEP4 receptor binding Ki)
"CC(CCCc1ccccc1)[C@H](O)/C=C/[C@H]1CCC(=O)N1CC#Cc1ccc(C(=O)O)s1 (mixture of isomers) [Example 3C, 5-(3-((2R)-2-((3S,E)-3-hydroxy-4-methyl-7-phenylhept-1-en-1-yl)-5-oxopyrrolidin-1-yl)prop-1-yn-1-yl)thiophene-2-carboxylic acid]",,0.019 nM,> 10000 nM,,
"CC(CCCc1ccccc1)[C@@H](O)/C=C/[C@H]1CCC(=O)N1CC#Cc1ccc(C(=O)O)s1 (mixture of isomers) [Example 3D, 5-(3-((2R)-2-((3R,E)-3-hydroxy-4-methyl-7-phenylhept-1-en-1-yl)-5-oxopyrrolidin-1-yl)prop-1-yn-1-yl)thiophene-2-carboxylic acid]",,31.5 nM,> 10000 nM,,
"CC(CCCc1ccccc1)[C@H](O)/C=C/[C@H]1CCC(=O)N1CCCc1ccc(C(=O)O)s1 (mixture of isomers) [Example 4C, 5-(3-((2R)-2-((3S,E)-3-hydroxy-4-methyl-7-phenylhept-1-en-1-yl)-5-oxopyrrolidin-1-yl)propyl)thiophene-2-carboxylic acid]",,0.003 nM,2280 nM,,
